# From ChEMBL document CHEMBL5723587, “Data for DCP probe BI-113823” (2024)
# Activity calls are given as the source filed them. The rule behind the calls is not given here.
# Legend:
# [1] = biological target: ATP-sensitive inward rectifier potassium channel 1 isoform X1 (Mesocricetus auratus) (UniProt A0A1U8CU73); assay: Activity against K+/KATP/HA in the Eurofins SafetyScreen44 (BI) by Radioactive Assay; settings: Cricetinae; Compound concentration 10.0 uM
# [2] = biological target: Platelet-activating factor receptor (Homo sapiens) (UniProt P25105); assay: Activity against PAF/H in the Eurofins SafetyScreen44 (BI) by Radioactive Assay; settings: Compound concentration 10.0 uM
# [3] = biological target: P2X purinoceptor (Oryctolagus cuniculus) (UniProt G1U3D6); assay: Activity against P2X/RB in the Eurofins SafetyScreen44 (BI) by Radioactive Assay; settings: Compound concentration 10.0 uM
# [4] = biological target: Estrogen receptor (Homo sapiens) (UniProt P03372); assay: Activity against ERALPHA/H in the Eurofins SafetyScreen44 (BI) by Radioactive Assay; settings: Compound concentration 10.0 uM
# [5] = biological target: Androgen receptor (Rattus norvegicus) (UniProt P15207); assay: Activity against TESTOST/RA in the Eurofins SafetyScreen44 (BI) by Others; settings: Compound concentration 10.0 uM
# [6] = biological target: Melatonin receptor type 1A (Homo sapiens) (UniProt P48039); assay: Activity against MT1/H in the Eurofins SafetyScreen44 (BI) by Radioactive Assay; settings: Compound concentration 10.0 uM
# [7] = biological target: Sodium-dependent dopamine transporter (Homo sapiens) (UniProt Q01959); assay: Inhibitor of DATRANS/H in the Eurofins SafetyScreen44 (BI) by Radioactive Assay; settings: Compound concentration 10.0 uM
# hERG (KCNH2) = hERG (KCNH2) (Homo sapiens, UniProt Q12809); assay: Activity against K+/HERG in the Eurofins SafetyScreen44 (BI) by Radioactive Assay; settings: compound concentration 10 uM, read-out: % Ctrl
# [8] = biological target: Adenosine receptor A3 (Homo sapiens) (UniProt P0DMS8); assay: Activity against A3/H in the Eurofins SafetyScreen44 (BI); settings: Compound concentration 10.0 uM
# [9] = biological target: Glutamate receptor ionotropic, kainate 1 (Rattus norvegicus) (UniProt P22756); assay: Activity against KAINATE/R in the Eurofins SafetyScreen44 (BI) by Radioactive Assay; settings: Compound concentration 10.0 uM
# [10] = biological target: Type-1 angiotensin II receptor (Homo sapiens) (UniProt P30556); assay: Activity against AT1/HU in the Eurofins SafetyScreen44 (BI) by Radioligand Binding; settings: Compound concentration 10.0 uM
# [11] = biological target: Alpha-1A adrenergic receptor (Rattus norvegicus) (UniProt P43140); assay: Activity against ALPHA1A/R in the Eurofins SafetyScreen44 (BI) by Others; settings: Compound concentration 10.0 uM
# [12] = biological target: Glutamate receptor ionotropic, NMDA 2A (Rattus norvegicus) (UniProt Q00959); assay: Activity against NMDAPHSI/R in the Eurofins SafetyScreen44 (BI) by Radioactive Assay; settings: Compound concentration 10.0 uM
# [13] = biological target: Beta-2 adrenergic receptor (Homo sapiens) (UniProt P07550); assay: Activity against BETA2/HU in the Eurofins SafetyScreen44 (BI) by Radioactive Assay; settings: Compound concentration 10.0 uM
# [14] = biological target: Histamine H2 receptor (Homo sapiens) (UniProt P25021); assay: Activity against H2/H in the Eurofins SafetyScreen44 (BI) by Radioactive Assay; settings: Compound concentration 10.0 uM
# [15] = biological target: Endothelin-1 receptor (Homo sapiens) (UniProt P25101); assay: Activity against ETA/HU in the Eurofins SafetyScreen44 (BI) by Radioactive Assay; settings: Compound concentration 10.0 uM
# [16] = Activity against I2/CENTR/R in the Eurofins SafetyScreen44 (BI) by Radioactive Assay; settings: Rattus norvegicus; Compound concentration 10.0 uM
# [17] = biological target: Nicotinic acetylcholine receptor alpha-1/beta-1 (Homo sapiens) (UniProt P02708+P11230); assay: Activity against NACH_BS_N/H in the Eurofins SafetyScreen44 (BI) by Radioactive Assay; type: protein-complex assay; settings: Compound concentration 10.0 uM
# [18] = biological target: D(1A) dopamine receptor (Homo sapiens) (UniProt P21728); assay: Activity against D1/HU in the Eurofins SafetyScreen44 (BI) by Radioactive Assay; settings: Compound concentration 10.0 uM
# [19] = biological target: Adenosine receptor A1 (Homo sapiens) (UniProt P30542); assay: Activity against A1/HU in the Eurofins SafetyScreen44 (BI) by Radioactive Assay; settings: Compound concentration 10.0 uM
# [20] = biological target: Alpha-1B adrenergic receptor (Rattus norvegicus) (UniProt P15823); assay: Activity against ALPHA1B/R in the Eurofins SafetyScreen44 (BI) by Radioactive Assay; settings: Compound concentration 10.0 uM
# [21] = biological target: D(2) dopamine receptor (Homo sapiens) (UniProt P14416); assay: Activity against D2S/HU in the Eurofins SafetyScreen44 (BI) by Radioligand Binding; settings: Compound concentration 10.0 uM
# [22] = biological target: Adenosine receptor A2a (Homo sapiens) (UniProt P29274); assay: Activity against A2A/HU in the Eurofins SafetyScreen44 (BI); settings: Compound concentration 10.0 uM
# [23] = biological target: Substance-P receptor (Homo sapiens) (UniProt P25103); assay: Activity against NK1/HU in the Eurofins SafetyScreen44 (BI) by Radioactive Assay; settings: Compound concentration 10.0 uM
# [24] = biological target: Glutamate receptor ionotropic, NMDA 1 (Rattus norvegicus) (UniProt P35439); assay: Inhibitor of NMDAGLSI/RA in the Eurofins SafetyScreen44 (BI) by Scintillation counting; settings: Compound concentration 10.0 uM
# [25] = biological target: Endothelin receptor type B (Homo sapiens) (UniProt P24530); assay: Activity against ETB/HUM in the Eurofins SafetyScreen44 (BI) by Radioactive Assay; settings: Compound concentration 10.0 uM
# [26] = biological target: Muscarinic acetylcholine receptor M2 (Homo sapiens) (UniProt P08172); assay: Activity against M2/HU in the Eurofins SafetyScreen44 (BI) by Radioactive Assay; settings: Compound concentration 10.0 uM
# B1 bradykinin receptor = B1 bradykinin receptor (Rattus norvegicus, UniProt P97583); assay: Radioligand binding assay (displacement of kallidin, rat BDKRB1 ) at 10 µM ( Non-specific binding is estimated in the presence of 10 µM Des-Arg9- (Leu8)-Bradykinin. Membranes are filtered and washed, the filters are then counted to determine [3H]Kallidin[des-Arg10, Leu9] specifically bound.); parameters: compound concentration 10 uM
# [27] = biological target: B1 bradykinin receptor (Homo sapiens) (UniProt P46663); assay: Activity against B1/H in the Eurofins SafetyScreen44 (BI) by Radioactive Assay; settings: Compound concentration 10.0 uM
# [28] = biological target: Neuropeptide Y receptor type 1 (Homo sapiens) (UniProt P25929); assay: Activity against Y1/HU in the Eurofins SafetyScreen44 (BI) by Radioactive Assay; settings: Compound concentration 10.0 uM
# [29] = biological target: Alpha-2A adrenergic receptor (Homo sapiens) (UniProt P08913); assay: Activity against ALPHA2A/H in the Eurofins SafetyScreen44 (BI) by Radioactive Assay; settings: Compound concentration 10.0 uM
# [30] = biological target: Gamma-aminobutyric acid receptor subunit alpha-1 (Rattus norvegicus) (UniProt P62813); assay: Activity against GABAACENTR in the Eurofins SafetyScreen44 (BI) by Radioactive Assay; settings: Compound concentration 10.0 uM
# [31] = biological target: Sigma intracellular receptor 2 (Rattus norvegicus) (UniProt Q5U3Y7); assay: Activity against SIGMA2/R in the Eurofins SafetyScreen44 (BI) by Radioactive Assay; settings: Compound concentration 10.0 uM
# [32] = biological target: Pyroglutamylated RF-amide peptide receptor (Homo sapiens) (UniProt Q96P65); assay: Activity against GPR103 in the Eurofins SafetyScreen44 (BI) by Radioactive Assay; settings: Compound concentration 10.0 uM
# [33] = biological target: Epidermal growth factor receptor (Homo sapiens) (UniProt P00533); assay: Activity against EGF/HU in the Eurofins SafetyScreen44 (BI) by Radioactive Assay; settings: Compound concentration 10.0 uM
# Chain of Adenosine receptor A3 (Homo sapiens) (P0DMS8 whole entry): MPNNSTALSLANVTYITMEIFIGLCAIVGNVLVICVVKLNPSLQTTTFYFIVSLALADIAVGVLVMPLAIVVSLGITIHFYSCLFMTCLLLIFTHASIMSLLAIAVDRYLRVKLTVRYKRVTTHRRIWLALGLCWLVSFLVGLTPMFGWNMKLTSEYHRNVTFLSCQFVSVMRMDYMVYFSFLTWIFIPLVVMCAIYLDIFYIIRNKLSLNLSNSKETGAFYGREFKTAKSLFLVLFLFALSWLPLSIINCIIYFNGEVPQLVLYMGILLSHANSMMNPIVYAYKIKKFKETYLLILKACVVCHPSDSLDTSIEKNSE
# Chain of B1 bradykinin receptor (P97583 whole entry): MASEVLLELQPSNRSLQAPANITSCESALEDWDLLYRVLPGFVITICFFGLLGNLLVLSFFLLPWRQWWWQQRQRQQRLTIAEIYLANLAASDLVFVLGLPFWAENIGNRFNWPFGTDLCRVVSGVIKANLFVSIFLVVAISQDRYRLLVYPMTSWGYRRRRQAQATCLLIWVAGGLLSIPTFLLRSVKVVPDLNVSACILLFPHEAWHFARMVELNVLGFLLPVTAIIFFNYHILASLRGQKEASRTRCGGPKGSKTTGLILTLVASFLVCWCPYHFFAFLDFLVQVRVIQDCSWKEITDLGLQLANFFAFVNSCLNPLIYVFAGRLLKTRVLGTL
# Chain of Sodium-dependent dopamine transporter (Homo sapiens) (Q01959 whole entry): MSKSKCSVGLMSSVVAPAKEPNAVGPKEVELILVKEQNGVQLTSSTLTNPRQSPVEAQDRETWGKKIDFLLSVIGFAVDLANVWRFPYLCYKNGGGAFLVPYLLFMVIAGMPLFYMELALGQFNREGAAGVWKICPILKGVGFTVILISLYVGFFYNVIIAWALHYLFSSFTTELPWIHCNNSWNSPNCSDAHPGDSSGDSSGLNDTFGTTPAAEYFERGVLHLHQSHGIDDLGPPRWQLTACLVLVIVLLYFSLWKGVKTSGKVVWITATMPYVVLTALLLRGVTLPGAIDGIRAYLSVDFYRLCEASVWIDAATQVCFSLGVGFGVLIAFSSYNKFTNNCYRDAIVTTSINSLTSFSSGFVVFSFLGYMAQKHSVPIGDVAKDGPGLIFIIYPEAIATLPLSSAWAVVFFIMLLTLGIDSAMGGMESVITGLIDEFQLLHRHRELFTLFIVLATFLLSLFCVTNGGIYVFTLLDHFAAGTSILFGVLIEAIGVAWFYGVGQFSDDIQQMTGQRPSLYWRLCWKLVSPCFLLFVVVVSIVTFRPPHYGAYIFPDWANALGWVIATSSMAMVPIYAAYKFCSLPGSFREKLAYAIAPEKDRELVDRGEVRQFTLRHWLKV
# Chain of Sigma intracellular receptor 2 (Rattus norvegicus) (Q5U3Y7 whole entry): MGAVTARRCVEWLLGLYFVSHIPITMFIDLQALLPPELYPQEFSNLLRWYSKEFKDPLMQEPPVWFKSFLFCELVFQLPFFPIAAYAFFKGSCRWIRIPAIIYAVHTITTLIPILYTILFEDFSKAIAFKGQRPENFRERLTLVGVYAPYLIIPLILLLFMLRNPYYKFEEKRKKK
# Chain of D(2) dopamine receptor (Homo sapiens) (P14416 whole entry): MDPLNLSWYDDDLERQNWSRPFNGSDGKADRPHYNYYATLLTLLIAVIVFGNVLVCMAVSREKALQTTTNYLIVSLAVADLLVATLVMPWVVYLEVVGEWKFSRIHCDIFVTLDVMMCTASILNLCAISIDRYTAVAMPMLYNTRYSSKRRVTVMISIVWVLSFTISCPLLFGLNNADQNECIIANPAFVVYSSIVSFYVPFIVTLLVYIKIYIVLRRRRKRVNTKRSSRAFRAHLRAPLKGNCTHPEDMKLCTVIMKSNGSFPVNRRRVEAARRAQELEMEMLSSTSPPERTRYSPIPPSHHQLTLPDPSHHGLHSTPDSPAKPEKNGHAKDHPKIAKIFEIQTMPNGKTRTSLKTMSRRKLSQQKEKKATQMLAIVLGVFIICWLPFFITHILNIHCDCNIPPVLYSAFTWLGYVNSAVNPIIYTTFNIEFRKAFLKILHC
# Chain of Alpha-1A adrenergic receptor (Rattus norvegicus) (P43140 whole entry, looked up): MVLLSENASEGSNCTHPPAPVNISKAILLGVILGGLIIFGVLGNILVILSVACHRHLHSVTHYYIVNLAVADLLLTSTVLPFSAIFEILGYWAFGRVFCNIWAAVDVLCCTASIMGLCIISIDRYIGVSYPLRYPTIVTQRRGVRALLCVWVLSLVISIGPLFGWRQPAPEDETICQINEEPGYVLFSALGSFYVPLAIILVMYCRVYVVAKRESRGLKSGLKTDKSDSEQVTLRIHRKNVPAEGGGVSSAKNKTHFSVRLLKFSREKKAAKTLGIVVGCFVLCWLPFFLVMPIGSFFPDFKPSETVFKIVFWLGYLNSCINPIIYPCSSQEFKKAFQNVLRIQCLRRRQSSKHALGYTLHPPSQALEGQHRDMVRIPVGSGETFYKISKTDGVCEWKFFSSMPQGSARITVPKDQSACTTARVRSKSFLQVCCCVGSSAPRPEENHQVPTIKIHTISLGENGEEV
# Chain of Glutamate receptor ionotropic, NMDA 2A (Rattus norvegicus) (Q00959 23-1464 limits assumed): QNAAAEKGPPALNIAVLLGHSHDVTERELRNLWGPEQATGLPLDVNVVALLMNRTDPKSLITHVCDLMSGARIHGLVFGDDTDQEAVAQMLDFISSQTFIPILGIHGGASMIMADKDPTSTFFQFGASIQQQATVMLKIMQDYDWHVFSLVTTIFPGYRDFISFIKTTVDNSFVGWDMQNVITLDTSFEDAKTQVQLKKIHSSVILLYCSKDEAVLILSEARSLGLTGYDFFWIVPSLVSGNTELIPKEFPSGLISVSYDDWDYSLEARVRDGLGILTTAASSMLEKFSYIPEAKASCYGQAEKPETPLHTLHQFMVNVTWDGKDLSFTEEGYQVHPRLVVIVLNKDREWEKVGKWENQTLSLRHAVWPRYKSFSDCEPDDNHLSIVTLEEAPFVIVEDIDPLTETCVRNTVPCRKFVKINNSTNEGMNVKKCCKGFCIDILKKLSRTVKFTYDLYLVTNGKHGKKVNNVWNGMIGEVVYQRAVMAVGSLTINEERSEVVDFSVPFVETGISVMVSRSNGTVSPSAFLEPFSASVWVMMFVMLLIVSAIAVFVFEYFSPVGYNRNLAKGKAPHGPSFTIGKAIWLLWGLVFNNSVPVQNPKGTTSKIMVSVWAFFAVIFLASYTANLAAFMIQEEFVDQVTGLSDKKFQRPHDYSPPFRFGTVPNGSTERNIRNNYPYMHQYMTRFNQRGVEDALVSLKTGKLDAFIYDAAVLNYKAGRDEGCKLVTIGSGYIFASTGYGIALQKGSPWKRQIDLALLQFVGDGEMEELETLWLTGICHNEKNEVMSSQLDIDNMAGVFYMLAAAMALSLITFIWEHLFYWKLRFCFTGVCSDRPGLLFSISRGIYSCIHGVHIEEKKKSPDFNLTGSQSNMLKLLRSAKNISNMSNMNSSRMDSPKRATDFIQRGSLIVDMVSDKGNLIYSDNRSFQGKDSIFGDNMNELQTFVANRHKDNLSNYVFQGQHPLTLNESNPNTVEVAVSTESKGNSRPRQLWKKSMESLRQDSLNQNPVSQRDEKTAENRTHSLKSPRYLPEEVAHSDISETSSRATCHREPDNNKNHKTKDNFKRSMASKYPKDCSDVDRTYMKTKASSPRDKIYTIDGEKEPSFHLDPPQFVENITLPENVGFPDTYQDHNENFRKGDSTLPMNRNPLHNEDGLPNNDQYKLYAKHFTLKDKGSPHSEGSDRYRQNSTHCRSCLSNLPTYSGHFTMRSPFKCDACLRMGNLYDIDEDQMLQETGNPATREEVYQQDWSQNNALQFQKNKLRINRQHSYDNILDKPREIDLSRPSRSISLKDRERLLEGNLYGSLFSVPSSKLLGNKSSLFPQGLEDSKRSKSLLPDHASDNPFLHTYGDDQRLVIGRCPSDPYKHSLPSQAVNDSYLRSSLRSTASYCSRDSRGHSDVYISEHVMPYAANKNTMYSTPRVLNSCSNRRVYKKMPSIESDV
# Chain of hERG (KCNH2) (Q12809 whole entry): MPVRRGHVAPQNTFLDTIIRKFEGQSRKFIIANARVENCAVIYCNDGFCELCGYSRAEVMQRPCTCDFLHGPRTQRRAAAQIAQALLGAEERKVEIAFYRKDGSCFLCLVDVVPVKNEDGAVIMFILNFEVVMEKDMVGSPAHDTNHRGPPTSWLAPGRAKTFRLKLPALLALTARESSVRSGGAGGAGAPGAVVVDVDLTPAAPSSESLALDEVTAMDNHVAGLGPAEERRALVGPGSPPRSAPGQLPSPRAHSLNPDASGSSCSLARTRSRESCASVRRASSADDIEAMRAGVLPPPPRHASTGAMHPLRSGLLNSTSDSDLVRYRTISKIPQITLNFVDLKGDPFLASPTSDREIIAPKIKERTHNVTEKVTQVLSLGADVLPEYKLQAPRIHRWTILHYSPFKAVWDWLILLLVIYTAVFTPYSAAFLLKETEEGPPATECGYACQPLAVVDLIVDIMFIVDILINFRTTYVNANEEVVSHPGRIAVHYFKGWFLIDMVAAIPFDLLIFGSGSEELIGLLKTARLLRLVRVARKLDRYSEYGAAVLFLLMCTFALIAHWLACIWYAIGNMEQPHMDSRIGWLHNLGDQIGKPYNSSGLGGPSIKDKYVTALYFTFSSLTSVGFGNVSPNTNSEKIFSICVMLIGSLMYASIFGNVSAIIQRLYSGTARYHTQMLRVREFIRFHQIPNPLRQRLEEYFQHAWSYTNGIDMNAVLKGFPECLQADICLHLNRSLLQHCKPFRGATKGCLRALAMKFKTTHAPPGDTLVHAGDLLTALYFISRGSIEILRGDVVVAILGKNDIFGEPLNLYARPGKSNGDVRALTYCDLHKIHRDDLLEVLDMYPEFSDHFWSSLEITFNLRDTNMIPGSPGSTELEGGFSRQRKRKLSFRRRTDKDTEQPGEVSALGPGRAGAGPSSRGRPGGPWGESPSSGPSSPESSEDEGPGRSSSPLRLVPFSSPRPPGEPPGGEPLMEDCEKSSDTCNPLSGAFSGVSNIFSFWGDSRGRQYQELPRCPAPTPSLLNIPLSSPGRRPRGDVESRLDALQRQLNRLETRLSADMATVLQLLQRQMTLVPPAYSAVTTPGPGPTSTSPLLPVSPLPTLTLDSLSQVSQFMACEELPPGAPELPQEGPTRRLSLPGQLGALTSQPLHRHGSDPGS
structure (smiles),measurement,setting,value
COc1cc(C)c(S(=O)(=O)N(C)CCOCC(=O)N(C)[C@H]2CCC[C@@H](N3CCN(C)CC3)C2)c(C)c1,residual activity,[1],90%
same,residual activity,[2],87%
same,residual activity,[3],100%
same,residual activity,[4],104%
same,residual activity,[5],96%
same,residual activity,[6],97%
same,residual activity,[7],103%
same,activity at 10 µM,hERG (KCNH2),70% (not active)
same,residual activity,[8],101%
same,residual activity,[9],93%
same,residual activity,[10],115%
same,residual activity,[11],118%
same,residual activity,[12],111%
same,residual activity,[13],103%
same,residual activity,[14],93%
same,residual activity,[15],96%
same,residual activity,[16],60%
same,residual activity,[17],96%
same,residual activity,[18],97%
same,residual activity,[19],99%
same,residual activity,[20],96%
same,residual activity,[21],105%
same,residual activity,[22],97%
same,residual activity,[23],109%
same,residual activity,[24],93%
same,residual activity,[25],104%
same,residual activity,[26],61%
same,Ki,B1 bradykinin receptor,13.3 nM (active)
same,residual activity,[27],22%
same,residual activity,[28],109%
same,residual activity,[29],85%
same,residual activity,[30],96%
same,residual activity,[31],45%
same,residual activity,[32],105%
same,residual activity,[33],125%
